Experimental data: patent US12172995B2, “Substituted indole and indazole compounds” (BRISTOL-MYERS SQUIBB COMPANY, priority 2018, dated 2024)

Key:
Format in all cases: cell-based
human TLR7 = molecular target: T1, human TLR7 (Homo sapiens, UniProt Q9NYK1); experiment: TLR7 inhibition reporter assay (HEK-Blue SEAP); conditions: HEK-Blue cells overexpressing human TLR7, stimulated with gardiquimod 7.5 μM, 22 hour incubation
T1 construct: host or cells: HEK-Blue cells
T1 sequence (Q9NYK1 27-1049): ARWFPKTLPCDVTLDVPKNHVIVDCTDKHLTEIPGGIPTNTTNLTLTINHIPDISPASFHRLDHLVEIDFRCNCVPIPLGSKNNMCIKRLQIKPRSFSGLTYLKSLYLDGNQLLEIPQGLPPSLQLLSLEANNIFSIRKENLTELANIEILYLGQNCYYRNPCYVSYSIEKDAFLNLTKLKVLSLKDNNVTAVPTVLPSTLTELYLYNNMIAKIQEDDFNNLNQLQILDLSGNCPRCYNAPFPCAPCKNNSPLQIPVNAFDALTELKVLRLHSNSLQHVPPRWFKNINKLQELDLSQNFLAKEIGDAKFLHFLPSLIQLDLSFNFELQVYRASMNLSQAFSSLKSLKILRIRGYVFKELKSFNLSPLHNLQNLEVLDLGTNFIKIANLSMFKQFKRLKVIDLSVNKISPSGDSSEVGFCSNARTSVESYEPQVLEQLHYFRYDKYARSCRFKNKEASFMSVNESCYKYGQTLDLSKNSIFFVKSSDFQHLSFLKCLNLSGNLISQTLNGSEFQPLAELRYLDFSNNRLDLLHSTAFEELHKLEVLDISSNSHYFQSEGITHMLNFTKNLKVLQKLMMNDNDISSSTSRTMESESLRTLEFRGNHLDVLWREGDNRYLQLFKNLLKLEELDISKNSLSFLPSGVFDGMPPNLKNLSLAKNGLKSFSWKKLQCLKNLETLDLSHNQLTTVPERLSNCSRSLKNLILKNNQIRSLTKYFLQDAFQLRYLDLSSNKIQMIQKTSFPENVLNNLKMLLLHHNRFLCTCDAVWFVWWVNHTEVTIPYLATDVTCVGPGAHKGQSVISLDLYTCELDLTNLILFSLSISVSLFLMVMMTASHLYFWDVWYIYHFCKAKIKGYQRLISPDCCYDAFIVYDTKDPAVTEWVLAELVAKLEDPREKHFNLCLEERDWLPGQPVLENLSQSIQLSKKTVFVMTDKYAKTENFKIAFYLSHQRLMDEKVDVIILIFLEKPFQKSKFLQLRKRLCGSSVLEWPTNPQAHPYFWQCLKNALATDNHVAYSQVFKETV
Procedure: (§1) TLR7/8/9 Inhibition Reporter Assays
(§2) HEK-Blue™-cells (Invivogen) overexpressing human TLR7, TLR8 or TLR9 receptors were used for screening inhibitors of these receptors using an inducible SEAP (secreted embryonic alkaline phosphatase) reporter gene under the control of the IFN-β minimal promoter fused to five NF-κB and AP-1-binding sites. Briefly, cells are seeded into Greiner 384 well plates (15000 cells per well for TLR7, 20,000 for TLR8 and 25,000 for TLR9) and then treated with test compounds in DMSO to yield a final dose response concentration range of 0.05 nM to 50 μM. After a 30 minute compound pre-treatment at room temperature, the cells are then stimulated with a TLR7 ligand (gardiquimod at a final concentration of 7.5 μM), TLR8 ligand (R848 at a final concentration of 15.9 μM) or TLR9 ligand (ODN2006 at a final concentration of 5 nM) to activate NF-κB and AP-1 which induce the production of SEAP. After a 22 hour incubation at 37° C., 5% CO2, SEAP levels are determined with the addition of HEK-Blue™ Detection reagent (Invivogen), a cell culture medium that allows for detection of SEAP, according to manufacturer's specifications. The percent inhibition is determined as the % reduction in the HEK-Blue signal present in wells treated with agonist plus DMSO alone compared to wells treated with a known inhibitor.

human TLR8 = molecular target: T2, human TLR8 (Homo sapiens, UniProt Q9NR97); experiment: TLR8 inhibition reporter assay (HEK-Blue SEAP); conditions: HEK-Blue cells overexpressing human TLR8, stimulated with R848 15.9 μM, 22 hour incubation
T2 construct: host or cells: HEK-Blue cells
T2 sequence (Q9NR97 27-1041): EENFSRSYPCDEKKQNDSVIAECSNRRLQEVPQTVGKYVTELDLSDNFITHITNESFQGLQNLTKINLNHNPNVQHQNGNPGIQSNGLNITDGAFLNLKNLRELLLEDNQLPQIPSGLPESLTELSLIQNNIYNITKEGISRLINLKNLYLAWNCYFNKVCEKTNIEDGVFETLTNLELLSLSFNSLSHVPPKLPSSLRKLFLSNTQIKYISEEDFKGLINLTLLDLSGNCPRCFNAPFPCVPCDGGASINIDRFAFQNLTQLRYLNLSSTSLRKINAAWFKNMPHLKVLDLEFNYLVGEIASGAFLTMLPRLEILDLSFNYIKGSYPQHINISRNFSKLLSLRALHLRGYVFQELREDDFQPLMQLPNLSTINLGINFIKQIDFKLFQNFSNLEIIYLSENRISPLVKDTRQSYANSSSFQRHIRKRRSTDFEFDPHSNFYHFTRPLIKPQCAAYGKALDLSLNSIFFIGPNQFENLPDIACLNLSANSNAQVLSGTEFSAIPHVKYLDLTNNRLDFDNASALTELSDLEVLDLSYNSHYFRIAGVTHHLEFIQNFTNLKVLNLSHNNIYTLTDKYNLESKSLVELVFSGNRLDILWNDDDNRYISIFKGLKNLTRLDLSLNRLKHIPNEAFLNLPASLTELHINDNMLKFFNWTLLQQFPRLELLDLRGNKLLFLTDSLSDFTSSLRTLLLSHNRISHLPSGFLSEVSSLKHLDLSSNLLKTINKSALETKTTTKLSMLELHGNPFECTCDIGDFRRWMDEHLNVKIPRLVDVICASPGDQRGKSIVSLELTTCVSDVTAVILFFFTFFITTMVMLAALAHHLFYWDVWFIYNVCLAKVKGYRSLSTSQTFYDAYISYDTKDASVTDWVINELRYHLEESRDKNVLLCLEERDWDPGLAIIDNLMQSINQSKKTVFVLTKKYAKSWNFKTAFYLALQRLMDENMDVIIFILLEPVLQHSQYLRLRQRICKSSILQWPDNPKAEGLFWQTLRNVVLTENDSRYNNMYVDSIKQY
Procedure: as §1, §2

human TLR9 = molecular target: T3, human TLR9 (Homo sapiens, UniProt Q9NR96); experiment: TLR9 inhibition reporter assay (HEK-Blue SEAP); conditions: HEK-Blue cells overexpressing human TLR9, stimulated with ODN2006 5 nM, 22 hour incubation
T3 construct: host or cells: HEK-Blue cells
T3 sequence (Q9NR96 26-1032): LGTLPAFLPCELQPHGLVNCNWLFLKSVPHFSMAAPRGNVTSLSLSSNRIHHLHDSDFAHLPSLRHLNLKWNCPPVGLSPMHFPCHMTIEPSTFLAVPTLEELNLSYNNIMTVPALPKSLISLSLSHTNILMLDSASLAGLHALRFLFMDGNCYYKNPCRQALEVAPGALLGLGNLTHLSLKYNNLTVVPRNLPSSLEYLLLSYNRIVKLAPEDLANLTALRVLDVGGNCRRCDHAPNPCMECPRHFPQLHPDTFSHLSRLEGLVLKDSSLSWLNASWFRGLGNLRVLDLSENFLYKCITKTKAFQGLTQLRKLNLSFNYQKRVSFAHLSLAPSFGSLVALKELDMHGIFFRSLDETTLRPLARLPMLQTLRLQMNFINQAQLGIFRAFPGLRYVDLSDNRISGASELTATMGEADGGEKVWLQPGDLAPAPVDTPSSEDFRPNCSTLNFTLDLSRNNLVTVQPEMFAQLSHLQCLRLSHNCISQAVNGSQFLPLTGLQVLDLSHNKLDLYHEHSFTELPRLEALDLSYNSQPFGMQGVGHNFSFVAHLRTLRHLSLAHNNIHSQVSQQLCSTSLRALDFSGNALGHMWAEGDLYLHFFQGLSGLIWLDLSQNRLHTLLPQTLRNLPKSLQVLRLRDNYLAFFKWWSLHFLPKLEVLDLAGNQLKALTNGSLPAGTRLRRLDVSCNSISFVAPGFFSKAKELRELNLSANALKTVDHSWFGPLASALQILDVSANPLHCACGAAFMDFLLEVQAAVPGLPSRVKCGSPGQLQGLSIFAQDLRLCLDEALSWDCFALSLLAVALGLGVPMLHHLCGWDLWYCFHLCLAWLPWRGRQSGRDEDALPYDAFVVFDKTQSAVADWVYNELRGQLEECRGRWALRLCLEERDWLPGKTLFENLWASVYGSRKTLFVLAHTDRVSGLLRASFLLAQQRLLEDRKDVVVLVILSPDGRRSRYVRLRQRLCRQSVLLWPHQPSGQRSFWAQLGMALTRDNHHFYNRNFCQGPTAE
Procedure: as §1, §2

IC50 (human TLR7)	IC50 (human TLR8)	IC50 (human TLR9)	Structure (SMILES)
11.1 nM	10.9 nM	2190 nM	Cc1cc(-c2cc(C)c3ncnn3c2)cc2[nH]nc(C3CCN(CC(C)(C)O)CC3)c12 [Example 77, 2-methyl-1-(4-(4-methyl-6-(8-methyl-[1,2,4]triazolo[1,5-a]pyridin-6-yl)-1H-indazol-3-yl)piperidin-1-yl)propan-2-ol]
1.8 nM	1.4 nM	438 nM	Cc1cc(-c2cc(C)c3ncnn3c2)cc2[nH]nc(OC3CCNCC3)c12 [Example 174, 8-methyl-6-(4-methyl-3-(piperidin-4-yloxy)-1H-indazol-6-yl)-[1,2,4]triazolo[1,5-a]pyridine]
12.2 nM	8.2 nM	2340 nM	Cc1cc(-c2cc(C)c3ncnn3c2)cc2[nH]nc(OC3CCC(NC4CC4)CC3)c12 (single isomer, unassigned) [Example 189, N-cyclopropyl-4-((4-methyl-6-(8-methyl-[1,2,4]triazolo[1,5-a]pyridin-6-yl)-1H-indazol-3-yl)oxy)cyclohexan-1-amine]
2.5 nM	0.2 nM	15900 nM	Cc1cc(-c2cc3[nH]nc(C4CCC(N5CC(F)(F)C5)CC4)c3cc2C(C)C)cn2ncnc12 (single isomer, unassigned) [Example 134, 6-(3-(4-(3,3-difluoroazetidin-1-yl)cyclohexyl)-5-isopropyl-1H-indazol-6-yl)-8-methyl-[1,2,4]triazolo[1,5-a]pyridine]
0.3 nM		11000 nM	Cc1cc(-c2cc3[nH]nc(C4CCC(NCC(=O)N(C)C)CC4)c3cc2C(C)C)cn2ncnc12 (single isomer, unassigned) [Example 124, 2-((4-(5-isopropyl-6-(8-methyl-[1,2,4]triazolo[1,5-a]pyridin-6-yl)-1H-indazol-3-yl)cyclohexyl)amino)-N,N-dimethylacetamide]
	0.4 nM	7300 nM	Cc1cc(-c2cc3[nH]nc(C4CCC(N5CCC6(COC6)C5)CC4)c3cc2C(C)C)cn2ncnc12 (single isomer, unassigned) [Example 160, 6-(4-(5-isopropyl-6-(8-methyl-[1,2,4]triazolo[1,5-a]pyridin-6-yl)-1H-indazol-3-yl)cyclohexyl)-2-oxa-6-azaspiro[3.4]octane]
0.5 nM		13300 nM	Cc1cc(-c2cc3[nH]nc(C4CCC(N5CCC(C)(O)C5)CC4)c3cc2C(C)C)cn2ncnc12 (single isomer, unassigned) [Example 165, 1-(4-(5-isopropyl-6-(8-methyl-[1,2,4]triazolo[1,5-a]pyridin-6-yl)-1H-indazol-3-yl)cyclohexyl)-3-methylpyrrolidin-3-ol]
1.9 nM	0.1 nM		Cc1cc(-c2cc3[nH]nc(C4CCN(CCC#N)CC4)c3cc2C(C)C)cn2ncnc12 [Example 121, 3-(4-(5-isopropyl-6-(8-methyl-[1,2,4]triazolo[1,5-a]pyridin-6-yl)-1H-indazol-3-yl)piperidin-1-yl)propanenitrile]
0.2 nM		6670 nM	Cc1cc(-c2cc3[nH]nc(C4CCC(N(C)C)CC4)c3cc2C(C)C)cn2ncnc12 (stereo not shown) [Example 114, 4-(5-isopropyl-6-(8-methyl-[1,2,4]triazolo[1,5-a]pyridin-6-yl)-1H-indazol-3-yl)-N,N-dimethylcyclohexan-1-amine]
562 nM	32.4 nM		Cc1cc2cn[nH]c2cc1-c1cc(C)c2ncnn2c1 [Example 63, 8-methyl-6-(5-methyl-1H-indazol-6-yl)-[1,2,4]triazolo[1,5-a]pyridine]
	0.1 nM	7430 nM	Cc1cc(-c2cc3[nH]nc(C4CCC(N5CCC6(COC6)C5)CC4)c3cc2C(C)C)cn2ncnc12 (single isomer, unassigned) [Example 159, 6-(4-(5-isopropyl-6-(8-methyl-[1,2,4]triazolo[1,5-a]pyridin-6-yl)-1H-indazol-3-yl)cyclohexyl)-2-oxa-6-azaspiro[3.4]octane]

Structure (SMILES)	IC50 (human TLR7)	IC50 (human TLR8)	IC50 (human TLR9)
CCc1cc2c(C3CCN(C4COC4)CC3)n[nH]c2cc1-c1cc(C)c2ncnn2c1 [Example 89, 6-(5-ethyl-3-(1-(oxetan-3-yl)piperidin-4-yl)-1H-indazol-6-yl)-8-methyl-[1,2,4]triazolo[1,5-a]pyridine]	8.3 nM	0.7 nM	
